Here are results for one molecule from article PMC5218480 (PLoS ONE, 2017).

In the test the test system is MV-4-11 cells. In words: Gene expression microarray analysis (Affymetrix PrimeView) and GSEA. Also on record: RFU PODN (11730768_x_at) / Fold change /veh PODN (11730768_x_at) / RFU LINC00158 (11744669_a_at) / Fold change /veh LINC00158 (11744669_a_at) / RFU DUSP10 (11751237_a_at) / Fold change /veh DUSP10 (11751237_a_at) / RFU ID3 (11757404_x_at) / Fold change /veh ID3 (11757404_x_at) / RFU PLEKHG5 (11737974_s_at) / Fold change /veh PLEKHG5 (11737974_s_at) / RFU LRRC4B (11730491_at) / Fold change /veh LRRC4B (11730491_at) / RFU GIMAP4 (11747438_a_at) / Fold change /veh GIMAP4 (11747438_a_at) / RFU KRT8 (11758183_x_at) / Fold change /veh KRT8 (11758183_x_at) / RFU CNN1 (11734310_a_at) / Fold change /veh CNN1 (11734310_a_at) / RFU VPS37D (11726825_at) / Fold change /veh VPS37D (11726825_at) / RFU C10orf10 (11716522_x_at) / Fold change /veh C10orf10 (11716522_x_at) / RFU KIR2DL2 /// KIR2DL4 /// KIR2DL5A /// KIR2DL5B /// KIR2DS1 /// KIR2DS2 /// KIR2DS3 /// KIR2DS4 /// KIR3DL3 /// KIR3DL3 /// KIR3DS1 (11738374_at) / Fold change /veh KIR2DL2 /// KIR2DL4 /// KIR2DL5A /// KIR2DL5B /// KIR2DS1 /// KIR2DS2 /// KIR2DS3 /// KIR2DS4 /// KIR3DL3 /// KIR3DL3 /// KIR3DS1 (11738374_at) / RFU C1QL1 (11718748_at) / Fold change /veh C1QL1 (11718748_at) / RFU TMPRSS4 (11747572_a_at) / Fold change /veh TMPRSS4 (11747572_a_at) / RFU HAMP (11756126_x_at) / Fold change /veh HAMP (11756126_x_at) / RFU RNFT2 (11725882_a_at) / Fold change /veh RNFT2 (11725882_a_at) / RFU NR4A2 (11747474_a_at) / Fold change /veh NR4A2 (11747474_a_at) / RFU ABCC12 (11746883_a_at) / Fold change /veh ABCC12 (11746883_a_at) / RFU TMEM136 (11760407_x_at) / Fold change /veh TMEM136 (11760407_x_at) / RFU CLDN22 /// WWC2 (11732394_at) / Fold change /veh CLDN22 /// WWC2 (11732394_at) / RFU HLA-DPB1 (11760878_x_at) / Fold change /veh HLA-DPB1 (11760878_x_at) / RFU SPINT1 (11716480_a_at) / Fold change /veh SPINT1 (11716480_a_at) / RFU GAP43 (11754022_s_at) / Fold change /veh GAP43 (11754022_s_at) / RFU A4GNT (11735810_at) / Fold change /veh A4GNT (11735810_at) / RFU PRB3 (11715151_x_at) / Fold change /veh PRB3 (11715151_x_at) / RFU TUBB4B (11761932_at) / Fold change /veh TUBB4B (11761932_at) / RFU CAPN14 (11732068_a_at) / Fold change /veh CAPN14 (11732068_a_at) / RFU TMCC2 (11721928_a_at) / Fold change /veh TMCC2 (11721928_a_at) / RFU IRGQ (11745062_a_at) / Fold change /veh IRGQ (11745062_a_at) / RFU FAM174B (11720279_a_at) / Fold change /veh FAM174B (11720279_a_at) / RFU TMPRSS4 (11748680_a_at) / Fold change /veh TMPRSS4 (11748680_a_at) / RFU FAM212B (11763350_a_at) / Fold change /veh FAM212B (11763350_a_at) / RFU PLEKHG5 (11743358_a_at) / Fold change /veh PLEKHG5 (11743358_a_at) / RFU ZSCAN30 (11745921_a_at) / Fold change /veh ZSCAN30 (11745921_a_at) / RFU CMKLR1 (11741424_a_at) / Fold change /veh CMKLR1 (11741424_a_at) / RFU LOC101060620 /// MAPK8IP1 (11723275_at) / Fold change /veh LOC101060620 /// MAPK8IP1 (11723275_at) / RFU SPTSSB (11747773_x_at) / Fold change /veh SPTSSB (11747773_x_at) / RFU PRSS12 (11739890_at) / Fold change /veh PRSS12 (11739890_at) / RFU BIN1 (11741810_x_at) / Fold change /veh BIN1 (11741810_x_at) / RFU WNT11 (11732464_a_at) / Fold change /veh WNT11 (11732464_a_at) / RFU C10orf10 (11716521_a_at) / Fold change /veh C10orf10 (11716521_a_at) / RFU C5orf56 (11738089_at) / Fold change /veh C5orf56 (11738089_at) / RFU CYB561 (11721691_x_at) / Fold change /veh CYB561 (11721691_x_at) / RFU ANKRD19P (11752326_a_at) / Fold change /veh ANKRD19P (11752326_a_at) / RFU OR2T12 /// OR2T33 /// OR2T8 (11738714_s_at) / Fold change /veh OR2T12 /// OR2T33 /// OR2T8 (11738714_s_at) / RFU VCAN (11748164_a_at) / Fold change /veh VCAN (11748164_a_at) / RFU JSRP1 (11732532_at) / Fold change /veh JSRP1 (11732532_at) / RFU KRTAP10-11 (11738290_x_at) / Fold change /veh KRTAP10-11 (11738290_x_at) / RFU MYO3A (11730013_a_at) / Fold change /veh MYO3A (11730013_a_at) / RFU EBF3 (11725865_a_at) / Fold change /veh EBF3 (11725865_a_at) / RFU CAMK2N1 (11719241_x_at) / Fold change /veh CAMK2N1 (11719241_x_at) / RFU C5orf56 (11738088_a_at) / Fold change /veh C5orf56 (11738088_a_at) / RFU OLFML3 (11715873_a_at) / Fold change /veh OLFML3 (11715873_a_at) / RFU LOC100653217 /// NTM (11731650_a_at) / Fold change /veh LOC100653217 /// NTM (11731650_a_at) / RFU MAPK11 (11762145_a_at) / Fold change /veh MAPK11 (11762145_a_at) / RFU FIZ1 (11724087_x_at) / Fold change /veh FIZ1 (11724087_x_at) / RFU OASL (11726364_x_at) / Fold change /veh OASL (11726364_x_at) / RFU SOX15 (11748057_x_at) / Fold change /veh SOX15 (11748057_x_at) / RFU CD79A (11719716_a_at) / Fold change /veh CD79A (11719716_a_at) / RFU HIST1H1D (11736915_at) / Fold change /veh HIST1H1D (11736915_at) / RFU CASKIN2 (11723855_a_at) / Fold change /veh CASKIN2 (11723855_a_at) / RFU LOC730098 (11760151_x_at) / Fold change /veh LOC730098 (11760151_x_at) / RFU OR4N2 (11742367_at) / Fold change /veh OR4N2 (11742367_at) / RFU PRRT2 (11749266_a_at) / Fold change /veh PRRT2 (11749266_a_at) / RFU SNX32 (11753110_a_at) / Fold change /veh SNX32 (11753110_a_at) / RFU CDHR5 (11726645_a_at) / Fold change /veh CDHR5 (11726645_a_at) / RFU RCAN1 (11760418_a_at) / Fold change /veh RCAN1 (11760418_a_at) / RFU FAM167A (11723789_a_at) / Fold change /veh FAM167A (11723789_a_at) / RFU FAM26E (11764081_at) / Fold change /veh FAM26E (11764081_at) / RFU ISYNA1 (11749810_s_at) / Fold change /veh ISYNA1 (11749810_s_at) / RFU ACY1 (11761880_at) / Fold change /veh ACY1 (11761880_at) / RFU 11764098_at / Fold change /veh 11764098_at / RFU SAMD14 (11745864_x_at) / Fold change /veh SAMD14 (11745864_x_at) / RFU NPB (11741838_a_at) / Fold change /veh NPB (11741838_a_at) / RFU TMPRSS6 (11731388_a_at) / Fold change /veh TMPRSS6 (11731388_a_at) / RFU KRTAP10-2 (11738614_at) / Fold change /veh KRTAP10-2 (11738614_at) / RFU ARHGAP8 /// PRR5-ARHGAP8 (11727945_x_at) / Fold change /veh ARHGAP8 /// PRR5-ARHGAP8 (11727945_x_at) / RFU KRTAP5-7 /// NADSYN1 (11734609_at) / Fold change /veh KRTAP5-7 /// NADSYN1 (11734609_at) / RFU RASL12 (11751679_a_at) / Fold change /veh RASL12 (11751679_a_at) / RFU CDKN2B (11736163_a_at) / Fold change /veh CDKN2B (11736163_a_at) / RFU PRF1 (11729649_at) / Fold change /veh PRF1 (11729649_at) / RFU, ZNF638 /// ZNF638-IT1 / Fold change vs veh, ZNF638 /// ZNF638-IT1 / RFU, PANK3 / Fold change vs veh, PANK3 / RFU, SH3YL1 / Fold change vs veh, SH3YL1 / RFU, ZEB2 / Fold change vs veh, ZEB2 / RFU, NRIP1 / Fold change vs veh, NRIP1 / RFU, PTTG1IP / Fold change vs veh, PTTG1IP / RFU, CAPN2 / Fold change vs veh, CAPN2 / RFU, MED14 / Fold change vs veh, MED14 / RFU, SNORA58 / Fold change vs veh, SNORA58 / RFU, C1orf63 / Fold change vs veh, C1orf63 / RFU, LRRFIP1 / Fold change vs veh, LRRFIP1 / RFU, NDUFAF7 / Fold change vs veh, NDUFAF7 / RFU, SLC12A2 / Fold change vs veh, SLC12A2 / RFU, IBTK / Fold change vs veh, IBTK / RFU, ESF1 / Fold change vs veh, ESF1 / Fold change vs veh, TMEM50B / RFU, TAOK1 / Fold change vs veh, TAOK1 / RFU, ACBD3 / Fold change vs veh, ACBD3 / RFU, TMA16 / Fold change vs veh, TMA16 / RFU, RWDD3 / Fold change vs veh, RWDD3 / RFU, BCAT1 / Fold change vs veh, BCAT1 / RFU, EDEM3 / Fold change vs veh, EDEM3 / RFU, TMEM33 / Fold change vs veh, TMEM33 / RFU, WDR75 / Fold change vs veh, WDR75 / RFU, AHCTF1 / Fold change vs veh, AHCTF1 / RFU, TFRC / Fold change vs veh, TFRC / RFU, ZDHHC17 / Fold change vs veh, ZDHHC17 / RFU, NOM1 / Fold change vs veh, NOM1 / RFU, ARL8B / Fold change vs veh, ARL8B / RFU, ZBTB11 / Fold change vs veh, ZBTB11 / RFU, TAMM41 / Fold change vs veh, TAMM41 / RFU, KIAA1704 /// LOC100996395 / Fold change vs veh, KIAA1704 /// LOC100996395 / RFU, ING1 / Fold change vs veh, ING1 / RFU, TRMT61B / Fold change vs veh, TRMT61B / RFU, FUBP3 / Fold change vs veh, FUBP3 / RFU, TP53 / Fold change vs veh, TP53 / RFU, TNKS2 / Fold change vs veh, TNKS2 / RFU, ZFP14 / Fold change vs veh, ZFP14 / RFU, ACTR2 / Fold change vs veh, ACTR2 / RFU, PPP3R1 / Fold change vs veh, PPP3R1 / RFU, PIK3R1 / Fold change vs veh, PIK3R1 / RFU, HNRNPA1 / Fold change vs veh, HNRNPA1 / RFU, RNF170 / Fold change vs veh, RNF170 / RFU, ZNF28 / Fold change vs veh, ZNF28 / RFU, RNGTT / Fold change vs veh, RNGTT / RFU, OGT / Fold change vs veh, OGT / RFU, BRD1 / Fold change vs veh, BRD1 / RFU, MARS / Fold change vs veh, MARS / RFU, ZNF655 / Fold change vs veh, ZNF655 / RFU, FAHD1 / Fold change vs veh, FAHD1 / RFU, BDP1 / Fold change vs veh, BDP1 / RFU, LRRCC1 / Fold change vs veh, LRRCC1 / RFU, ARID1A / Fold change vs veh, ARID1A / RFU, ZNF146 / Fold change vs veh, ZNF146 / RFU, ZNF330 / Fold change vs veh, ZNF330 / RFU, GPN3 / Fold change vs veh, GPN3 / RFU, C9orf123 / Fold change vs veh, C9orf123 / RFU, N4BP2L2 / Fold change vs veh, N4BP2L2 / RFU, ARFIP1 / Fold change vs veh, ARFIP1 / RFU, FAM179B / Fold change vs veh, FAM179B / RFU, BCL10 / Fold change vs veh, BCL10 / RFU, UHRF1BP1L / Fold change vs veh, UHRF1BP1L / RFU, BET1 / Fold change vs veh, BET1 / RFU, CNOT2 / Fold change vs veh, CNOT2 / RFU, ZNF268 / Fold change vs veh, ZNF268 / Fold change vs veh, ZNF507 / RFU, DGCR2 / Fold change vs veh, DGCR2 / RFU, WDSUB1 / Fold change vs veh, WDSUB1 / Fold change vs veh, HSP90B1 /// MIR3652 / RFU, ADSS / Fold change vs veh, ADSS / RFU, GK / Fold change vs veh, GK / RFU, ZNF148 / Fold change vs veh, ZNF148 / RFU, TAF9 / Fold change vs veh, TAF9 / RFU, SLC1A5 / Fold change vs veh, SLC1A5 / RFU, SLMO2 / Fold change vs veh, SLMO2 / RFU, ABCC4 / Fold change vs veh, ABCC4 / RFU, LOC101060439 /// RAP1B / Fold change vs veh, LOC101060439 /// RAP1B / RFU, RFX7 / Fold change vs veh, RFX7 / RFU, GTPBP10 / Fold change vs veh, GTPBP10 / RFU, CNEP1R1 / Fold change vs veh, CNEP1R1 / RFU, BIVM-ERCC5 /// ERCC5 / Fold change vs veh, BIVM-ERCC5 /// ERCC5 / RFU, ILF3 / Fold change vs veh, ILF3 / RFU 11762660_at / Fold change /veh 11762660_at / RFU VCAN (11757783_s_at) / Fold change /veh VCAN (11757783_s_at) / RFU DDX43 (11728927_at) / Fold change /veh DDX43 (11728927_at) / RFU KRT8 (11758188_x_at) / Fold change /veh KRT8 (11758188_x_at) / RFU NKD1 (11759106_at) / Fold change /veh NKD1 (11759106_at) / RFU SRD5A1 (11742802_a_at) / Fold change /veh SRD5A1 (11742802_a_at) / RFU TPSAB1 /// TPSB2 (11721975_s_at) / Fold change /veh TPSAB1 /// TPSB2 (11721975_s_at) / RFU GSTM3 (11746129_a_at) / Fold change /veh GSTM3 (11746129_a_at) / RFU IL23R (11737362_x_at) / Fold change /veh IL23R (11737362_x_at) / RFU TMEM51 (11727254_a_at) / Fold change /veh TMEM51 (11727254_a_at) / RFU PIWIL2 (11732686_x_at) / Fold change /veh PIWIL2 (11732686_x_at) / RFU ORM1 (11744905_x_at) / Fold change /veh ORM1 (11744905_x_at) / RFU CCDC152 (11743942_at) / Fold change /veh CCDC152 (11743942_at) / RFU ECM1 (11717891_a_at) / Fold change /veh ECM1 (11717891_a_at) / RFU IL23R (11748794_a_at) / Fold change /veh IL23R (11748794_a_at) / RFU TNFAIP8L3 (11732012_x_at) / Fold change /veh TNFAIP8L3 (11732012_x_at) / RFU MBOAT4 (11741988_at) / Fold change /veh MBOAT4 (11741988_at) / RFU 11764193_at / Fold change /veh 11764193_at / RFU TMEM53 (11763286_at) / Fold change /veh TMEM53 (11763286_at) / RFU MAGEB2 (11727129_at) / Fold change /veh MAGEB2 (11727129_at) / RFU TMEM200A (11744735_a_at) / Fold change /veh TMEM200A (11744735_a_at) / RFU CCDC152 (11751479_a_at) / Fold change /veh CCDC152 (11751479_a_at) / RFU FAM211A (11726209_a_at) / Fold change /veh FAM211A (11726209_a_at) / RFU RGS16 (11746705_a_at) / Fold change /veh RGS16 (11746705_a_at) / RFU VCAN (11755009_s_at) / Fold change /veh VCAN (11755009_s_at) / RFU RHOB (11743442_s_at) / Fold change /veh RHOB (11743442_s_at) / RFU RGS16 (11720943_a_at) / Fold change /veh RGS16 (11720943_a_at) / RFU RGS16 (11720944_at) / Fold change /veh RGS16 (11720944_at) / RFU, VPS4B / Fold change vs veh, VPS4B / RFU, CREB1 / Fold change vs veh, CREB1 / RFU, DNAJC13 / Fold change vs veh, DNAJC13 / RFU, GNAQ / Fold change vs veh, GNAQ / RFU, CDK5R1 / Fold change vs veh, CDK5R1 / RFU, ZRANB3 / Fold change vs veh, ZRANB3 / RFU, CUL4A / Fold change vs veh, CUL4A / RFU, CCNY / Fold change vs veh, CCNY / RFU, UFL1 / Fold change vs veh, UFL1 / RFU, COG3 / Fold change vs veh, COG3 / RFU, DIAPH2 / Fold change vs veh, DIAPH2 / RFU, SKA2 / Fold change vs veh, SKA2 / RFU, AFF3 / Fold change vs veh, AFF3 / RFU, LMF1 / Fold change vs veh, LMF1 / RFU, IPO11 / Fold change vs veh, IPO11 / RFU, DFFB / Fold change vs veh, DFFB / RFU, FOXP1 / Fold change vs veh, FOXP1 / RFU, CARD8 / Fold change vs veh, CARD8 / RFU, STRN3 / Fold change vs veh, STRN3 / RFU, ADK / Fold change vs veh, ADK / RFU, RASSF2 / Fold change vs veh, RASSF2 / RFU, WIPF1 / Fold change vs veh, WIPF1 / RFU, LARP1B / Fold change vs veh, LARP1B / RFU, RASA1 / Fold change vs veh, RASA1 / RFU, RB1 / Fold change vs veh, RB1 / RFU, PPFIA1 / Fold change vs veh, PPFIA1 / RFU, MAT2A / Fold change vs veh, MAT2A / RFU, CCT5 / Fold change vs veh, CCT5 / RFU, WDR92 / Fold change vs veh, WDR92 / RFU, CUX1 / Fold change vs veh, CUX1 / RFU, TTC7A / Fold change vs veh, TTC7A / RFU, TMEM135 / Fold change vs veh, TMEM135 / RFU, DEPTOR / Fold change vs veh, DEPTOR / RFU, CPM / Fold change vs veh, CPM / RFU, DNAJB6 / Fold change vs veh, DNAJB6 / RFU, CACNA2D3 / Fold change vs veh, CACNA2D3 / RFU, DTX4 / Fold change vs veh, DTX4 / RFU, TFCP2 / Fold change vs veh, TFCP2 / RFU, GMCL1 /// GMCL1P1 / Fold change vs veh, GMCL1 /// GMCL1P1 / RFU, AEBP2 / Fold change vs veh, AEBP2 / RFU, SNHG1 /// SNORD22 /// SNORD25 /// SNORD26 /// SNORD27 /// SNORD28 /// SNORD29 /// SNORD31 / Fold change vs veh, SNHG1 /// SNORD22 /// SNORD25 /// SNORD26 /// SNORD27 /// SNORD28 /// SNORD29 /// SNORD31 / Fold change (Aza/veh), C12orf56 (ProbeSet 11735607_a_at) / Fold change (ACY-1035/veh), C12orf56 (ProbeSet 11735607_a_at) / Fold change (Aza/veh), FGFR1OP (ProbeSet 11751329_s_at) / Fold change (ACY-1035/veh), FGFR1OP (ProbeSet 11751329_s_at) / Fold change (Aza/veh), VPS36 (ProbeSet 11739960_a_at) / Fold change (ACY-1035/veh), VPS36 (ProbeSet 11739960_a_at) / RFU SYPL1 (11715823_x_at) / Fold change /veh SYPL1 (11715823_x_at) / RFU IGFBP7 (11715501_s_at) / Fold change /veh IGFBP7 (11715501_s_at) / RFU REEP3 (11722064_at) / Fold change /veh REEP3 (11722064_at) / RFU IGLL1 (11728026_x_at) / Fold change /veh IGLL1 (11728026_x_at): dose or concentration left out as unconfirmed. The note with it: ProbeSet 11722463_a_at; LIST B. Format: cell-based, human.

On to `Nc1ncn([C@@H]2O[C@H](CO)[C@@H](O)[C@H]2O)c(=O)n1` [azacitidine], for which the “Fold change vs veh, TNKS2” value is listed as 0.86.
